The values that follow come from PMC12320245 (International Journal of Biological Sciences, 2025).

The structures appear in SMILES notation.

Assay [1] relates to PDE4 in primary hippocampal neurons. Kind of assay: Scratch injury: PDE4 expression (immunocytochemistry and Western blot). It is filed as cell-based, rat. Conditions: scratch-AMX vs scratch-vehicle, 24 hours after scratch. As for the experimental part: Primary hippocampal neurons were obtained from embryonic day 18 (E18) Sprague-Dawley rat embryos. Pregnant rats were anesthetized using 2-3% isoflurane in a gas mixture of 70% nitrous oxide and 30% oxygen. Following euthanasia, the hippocampi were carefully dissected, minced, and enzymatically dissociated using TrypLE Express (Gibco, NY, USA) for 10 minutes at 37°C. The tissue was further mechanically dissociated using fire-polished glass pipettes, and the resulting cell suspension was filtered through a 70 μm cell strainer to remove debris. Neurons were seeded at a density of 3 × 10^5 cells per well in 24-well plates pre-coated with poly-L-lysine (Sigma-Aldrich, Saint Louis, MO, USA). Cells were maintained in neurobasal medium supplemented with B-27 (Thermo Fisher Scientific, Waltham, MA, USA), GlutaMAX (Gibco), and penicillin-streptomycin. […]
A scratch injury model was used to mimic TBI in vitro. […] After the treatment period, neuronal damage and recovery were assessed using appropriate evaluation methods.
Twenty-four hours after the scratch injury, cells were lysed using RIPA buffer (IBS-BR002, iNtRON, Republic of Korea) supplemented with protease and phosphatase inhibitors (Sigma, USA). […] Protein detection was performed using a chemiluminescence bioimaging device (Amersham Imager 680, Cytiva, MA, USA), and the results were analyzed to determine protein expression levels. […]
In general terms: In western blotting, separated proteins are transferred to a membrane and probed.

For a further assay, the system named is TBI rats. Kind of assay: Controlled cortical impact TBI: modified neurological severity score. It is filed as in vivo, rat. Here is the method:
This study used male Sprague-Dawley rats weighing 300-350 g and aged 8 weeks, obtained from DBL Co. (Chungcheongbuk-do, Republic of Korea). The rats were housed in a controlled environment with a temperature of 20 ± 2 °C, a relative humidity of 55 ± 5%, and a 12-hour light/dark cycle. They were provided ad libitum access to food and water. To minimize stress associated with transportation, animals underwent a one-week acclimatization period before the start of the experiments. All experimental procedures were conducted in compliance with the guidelines of the National Institutes of Health for the care and use of laboratory animals and were approved by the Hallym University Institutional Animal Care and Use Committee (protocol # Hallym 2022-23, approved on July 15, 2022). This manuscript follows the principles outlined in the Animal research: reporting in vivo experiments (ARRIVE) guidelines.
A controlled cortical impact (CCI) model was used to induce TBI in rats. Animals were anesthetized with 1-1.5% isoflurane in a 30:70 oxygen-to-nitrous oxide mixture and securely positioned in a stereotaxic frame. […]
The mNSS provides a quantitative measure of neurological function, with scores ranging from 0 (normal function) to 18 (severe dysfunction). The test evaluates multiple parameters to comprehensively assess neurological deficits: 1) Tail Suspension (3 points)—The rat's ability to be lifted by its tail is assessed, with higher scores indicating increased difficulty or inability to lift. 2) Balance and Posture (3 points)—The rat's ability to maintain proper posture and balance when placed on a flat surface is observed and scored. 3) Sensory Function ([…])—Sensory responses, including reactions to tactile or pain stimuli, are evaluated. 4) Beam Balance Test (6 points)—The rat's ability to walk on a narrow beam is assessed. […] 5) Reflexes and Abnormal Movements (4 points)—The presence or absence of reflexes, as well as abnormal behaviors or movements, are recorded and scored.

Consider `CC(C)c1ccc2oc3nc(N)c(C(=O)O)cc3c(=O)c2c1` [AMX, amlexanox], for which, in assay [1], the PDE4 levels result is “significantly reduced”. Besides, the “beam balance test of mNSS (balance control, videos)” value in the assay with TBI rats (TBI-AMX vs TBI-vehicle) was “performed better”. Also, the ΔmNSS result with TBI rats (between day 1 and subsequent time points, vs vehicle) is listed as “greater improvements in ΔmNSS”. Also, the mNSS scores entry with TBI rats (days 1 to 7 after TBI, daily AMX 100 mg/kg i.p., vs vehicle) is listed as “lower mNSS scores”.
